Broadly, the IC50 is the midpoint of a concentration-inhibition curve. Lower therefore signals greater potency in that assay.

The values below come from patent US5972625A, “Assays for inhibitors of leukocyte adhesion” (The Regents of the University of California, priority 1997, dated 1999).

For experiment [1], the system named is L-selectin. Kind of experiment: Inhibition of L-selectin binding to GlyCAM-1 (ELISA with L-selectin-IgG chimera). To be noted: for Interaction of L-selectin with GlyCAM-1: FIG. 6, result in words. On the procedure: (§1) The CAMO2 antibody is diluted to a concentration of 1.6 μg/ml in PBS with 0.1% NaN3, and 100 μl of this solution is dispensed into each well of a 96-well plate. The plate is incubated overnight at 4° C. to allow adsorption of the antibody onto the solid support. The plate is then washed three times with PBS containing 0.1% tween, and blocked with 200 μl/well of a 3% solution of BSA in PBS for 2 hours at room temperature.
(§2) A crude GlyCAM-1 preparation is produced by extracting mouse serum with chloroform/methanol solution, followed by dialysis against PBS. After removing the blocking solution, 100 μl of this solution is dispensed into each well, and the plate is incubated for 1 hour at room temperature.
Chimeric molecules of the invention and more specifically, complexes of L-selectin with a secondary antibody and streptavidin-alkaline phosphates are formed as follows:
2 mg/ml L-selectin-IgG chimera
(§3) 2/1000 dilution of biotinylated goat anti-human Fc F(ab')2 (Caltag)
(§4) 2/1000 dilution of streptavidin-alkaline phosphatase (Caltag)
In PBS with 2% BSA and 5% normal rabbit serum
In a separate 96-well plate, 80 μl of serial dilutions of the test inhibitors dissolved in PBS are dispensed into each well. To each inhibitor-containing well is added 80 μl of the selectin-IgG/antibody/streptavidin-alkaline phosphatase complex solution. The plate is then incubated for 30 minutes at 4° C.
The plate containing CAMO2 antibody and captured GlyCAM-1 is washed three times with PBS/0.1% TWEEN detergent, and […] of each selectin complex/inhibitor mixture is transferred to the wells of the GlyCAM-containing plate. This plate is then incubated for 30 minutes at room temperature.
Finally, the solutions are removed from the GlyCAM-1 plate and the plate is washed three times with PBS/0.1% TWEEN detergent. […] of alkaline phosphatase substrate solution (p-nitrophenyl phosphate in ethanolamine/MgCl2) buffer is added to each well to detect the presence of bound selectin complex and the plate is quantified with a 96-well plate reader at 405 nm.

Experiment [2] addresses P-selectin. Kind of experiment: Inhibition of P-selectin binding to GlyCAM-1 (ELISA with P-selectin-IgG chimera). The procedure: as §1, §2
Chimeric molecules of the invention and more specifically, complexes of P-selection with a secondary antibody and streptavidin-alkaline phosphates are formed as follows:
4 μg/ml P-selectin-IgG chimera
as §3, §4
(§5) In PBS with 0.2% BSA and 5% normal rabbit serum
(§6) Assays as per Example 1-3 were used to determine IC50 's for the inhibition of L-, P- or E-selectin binding to GlyCAM-1 for a number of compounds.

Experiment [3] has as its target E-selectin. Description: Inhibition of E-selectin binding to GlyCAM-1 (ELISA with E-selectin-IgG chimera). The procedure:
as §1, §2
Chimeric molecules of the invention and more specifically, complexes of E-selection with a secondary antibody and streptavidin-alkaline phosphates are formed as follows:
4 μg/ml E-selectin-IgG chimera
as §3, §4, §5, §6
A general note: In an ELISA, binding on a coated surface is turned into a signal by an enzyme label.

The subject of experiment [4] is lymphocyte attachment to HEV. To be noted: literature; cited from earlier work.
The target in experiment [5] is T1, L-selectin (Homo sapiens, UniProt P14151).
T1 sequence (P14151 39-372): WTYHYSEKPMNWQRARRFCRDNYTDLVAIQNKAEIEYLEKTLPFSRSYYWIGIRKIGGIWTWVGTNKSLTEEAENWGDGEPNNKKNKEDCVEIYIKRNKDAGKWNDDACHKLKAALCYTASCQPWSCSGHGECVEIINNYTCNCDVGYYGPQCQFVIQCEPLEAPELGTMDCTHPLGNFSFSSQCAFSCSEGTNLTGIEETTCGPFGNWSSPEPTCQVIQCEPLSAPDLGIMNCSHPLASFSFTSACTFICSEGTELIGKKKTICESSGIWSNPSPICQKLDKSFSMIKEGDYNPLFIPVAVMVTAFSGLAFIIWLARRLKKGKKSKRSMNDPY
To be noted: without sulfate; cited from earlier work.

The subject of experiment [6] is L-selectin, P-selectin and E-selectin. Description: Binding of serum GlyCAM-1 to each of the different selectins. To be noted: Ig chimeras of the three selectins. The text has this:
(See FIG. 5). […] These specific conditions are described in detail in Examples 1-3.

For `O=C(O)CN(CCN(CC(=O)O)CC(=O)O)CC(=O)O` [EDTA], the “Interaction of L-selectin with GlyCAM-1” value in experiment [1] is “inhibited”.

In turn, `O=S(=O)(O)OC[C@H]1O[C@@H](O[C@H]2[C@H](O)[C@@H](O)C(O)O[C@@H]2CO)[C@H](O)[C@@H](OS(=O)(=O)O)[C@H]1O` (stereo partly drawn) [3',6'-disulfo lactose] returned an IC50 in experiment [1] (L-selectin) of 400 µM.

On to `O=S(=O)(O)OC[C@H]1O[C@@H](O[C@H]2[C@H](O)[C@@H](O)C(O)O[C@@H]2CO)[C@H](O)[C@@H](O)[C@H]1O` (stereo partly drawn) [6'-sulfo lactose], for which the concentration for half-maximal inhibition (IC50) in experiment [1] (L-selectin) turned out to be 10000 µM.

As for `O=P(O)(O)O[C@H]1[C@H](OP(=O)(O)O)[C@@H](OP(=O)(O)O)[C@H](OP(=O)(O)O)[C@@H](OP(=O)(O)O)[C@H]1OP(=O)(O)O` [phytic acid], the concentration for half-maximal inhibition (IC50) came out at 2 µM in experiment [1] (L-selectin) and 0.2 µM in experiment [2].

As for `O=S(=O)(O)OC[C@H]1O[C@@H](O[C@H]2[C@H](O)[C@@H](O)C(O)O[C@@H]2CO)[C@H](O)[C@@H](OS(=O)(=O)O)[C@H]1OS(=O)(=O)O` (stereo partly drawn) [3',4',6'-trisulfo lactose], the half-maximal inhibitory concentration (IC50) in experiment [1] (L-selectin) was found to be 200 µM.

Take 3'-sulfo Lewis a: the IC50 in experiment [1] (L-selectin) came to 1700 µM; in experiment [2], 140 µM; in experiment [3], 4000 µM.

On to `CC(=O)N[C@H]1C(O)O[C@H](CO)[C@@H](O[C@@H]2O[C@H](CO)[C@H](O)[C@H](OS(=O)(=O)O)[C@H]2O)[C@@H]1O[C@@H]1O[C@@H](C)[C@@H](O)[C@@H](O)[C@@H]1O` (stereo partly drawn) [3'-sulfo Lewis x], for which the IC50 was determined as 3000 µM in experiment [1] (L-selectin), 3000 µM in experiment [2] and 4000 µM in experiment [3].

On to fucoidan, for which the “Interaction of L-selectin with GlyCAM-1” value in experiment [1] is reported as “inhibited”. The “IC50 for the inhibition of L-selectin binding to GlyCAM-1” value in experiment [1] (L-selectin) was 0.2 µg/mL. The “IC50 for the inhibition of P-selectin binding to GlyCAM-1” value in experiment [2] was determined as 0.02 µg/mL. In addition, in experiment [4], the “Lymphocyte attachment to HEV” value is listed as “active”.

For sialyl Lewis^x oligosaccharide [sLe^x], the “Affinity for L-selectin” value in experiment [5] is reported as “very low affinity”.

On to `O=P(O)(O)OC[C@H]1OC(O)[C@@H](O)[C@@H](O)[C@@H]1O` (stereo partly drawn) [mannose-6-phosphate], for which the “Interaction of L-selectin with GlyCAM-1” value in experiment [1] is reported as “inhibited”. Also, the IC50 in experiment [1] (L-selectin) was found to be 1500 µM. Also, the “Lymphocyte attachment to HEV” value in experiment [4] is “prevent lymphocyte attachment to HEV”.

B1: GlyCAM-1: a sulfated, fucosylated and sialylated glycoprotein of about 50 kd now termed GlyCAM-1 (protein, UniProt Q02596 20-151, looked up)
Glycosylation-dependent cell …: LPGSKDELQMKTQPTDAIPAAQSTPTSYTSEESTSSKDLSKEPSIFREELISKDNVVIESTKPENQEAQDGLRSGSSQLEETTRPTTSAATTSEENLTKSSQTVEEELGKIIEGFVTGAEDIISGASRITKS
In the case of B1, the “Binding of serum GlyCAM-1 to the selectins” value in experiment [6] was “will bind to each of the different selectins”.
